Laboratory results as given in article PMC3975964, “Protective effect of a sesamin derivative, 3-bis (3-methoxybenzyl) butane-1, 4-diol on ischemic and hypoxic neuronal injury” (Journal of Biomedical Science, 2014).

How the values were obtained:
IL-1 = assay: Hypoxia-induced IL-1 production (ELISA), BV-2; format: cell-based, murine
Method: (§1) On the day of experiment, culture media were replaced with glucose-free DMEM, then, gassed with 85% N2, 10% H2, and 5% CO2 for various time periods in the absence or presence of various doses of BBD.
(§2) Cytokines (IL-1β, IL-6) and PGE2 were measured using ELISA kits (R&D, Minneapolis, MN, USA). The absorbance at 450 nm was determined using a microplate reader (spectraMAX 340).

AKT-1 = assay: Western blot of hypoxia-induced signaling, BV-2: AKT-1; format: cell-based, murine; conditions: BV-2 cells, 10 min hypoxia, BBD 20 μM
Method: as §1
(§3) Samples containing 25 μg of protein were separated on 12.5% (w/v) sodium dodecyl sulfate-polyacrylamide gels, and transferred to immobilon polyvinylidenedifluoride membranes (Millipore, Bedford, USA). The membranes were incubated for 2 h with 5% (w/v) dry skim milk in TBST buffer to block non-specific binding, then ERK, p38 JNK, AKT-1, COX-2, caspase-3, β-actin proteins for neuron cells were detected by a chemiluminescence detection system according to the manufacturer’s instructions (ECL, Amersham, Berkshire, UK).

[1] = PAMPA-BBB membrane permeability assay
Method: The blood–brain barrier limits drug access into the brain, due to tight junctions, membrane drug transporters, and unique lipid composition. Porcine whole-brain lipid is successfully used in passive permeability test for CNS drugs.
The parallel artificial membrane permeation assay (PAMPA) was carried out in a sandwich-like 96-well PAMPA plate formed by a top filter plate containing acceptor wells and a bottom plate containing donor wells. Each composite well was divided into two chambers: 300 μl of donor solution (test article or QC standards) at the bottom and 200 μl of acceptor buffer (PBS buffer containing 5% DMSO) at the top, separated by a polyvinylidene fluoride (PVDF, 0.45 μm pore size) membrane, coated with 4 μl of 20 mg/ml porcine polar brain lipid (PBL) in n-dodecane. […] The final DMSO concentration in working stock solution is 5%. Each compound was performed in triplicate. The test compound diffused from the donor well through the lipid membrane and into the acceptor well. The sandwich plate was placed with the plate lid and incubated at room temperature for approximately 18 h. After reaching diffusion equilibration, the PAMPA sandwich plate was disassembled and the concentration of drug in the acceptor, the donor, and the reference wells was determined using a TECAN microplate reader (Durham, NC, USA).

ERK [2] = assay: Western blot of hypoxia-induced signaling, PC12: ERK; format: cell-based, rat; conditions: PC12 cells, 10 min hypoxia (Figure 5C), BBD 20 μM
Method: as §1, §3

ERK [3] = assay: Western blot of hypoxia-induced signaling, BV-2: ERK; format: cell-based, murine; conditions: BV-2 cells, 10 min hypoxia, BBD 20 μM
Method: as §1, §3

BV-2 cells [4] = assay: LDH release under hypoxia, BV-2; format: cell-based, murine; conditions: BBD 1, 10, 20 μM
Method: (§4) Murine BV-2 microglial cell line was maintained in DMEM supplemented with 10% (v/v) FBS, 100 U/ml penicillin and 100 μg/ml streptomycin (P/S) in a humidified incubator under 5% CO2 at 37°C. Rat pheochromacytoma PC12 cell line was maintained in DMEM supplemented with 10% FBS, 5% horse serum, P/S at 37°C under 5% CO2. Confluent cultures were passaged by trypsinization. In all experiments, the cells were treated with BBD immediately before hypoxia. BBD was dissolved in DMSO. The final concentration of DMSO added to cells never exceeded 0.1% (v/v).
as §1
(§5) Cytotoxicity was determined by measuring the release of LDH. PC12 or BV-2 cells treated with various concentrations of BBD were stressed with hypoxia for one hour and the supernatant was then assayed for LDH activity. An absorbance was read at 490/630 nm using a spectraMAX 340 microtiter plate reader. Data were expressed as the mean percent of viable cells vs. the control.

PC12 cells [5] = assay: MTT cell viability under hypoxia, PC12; format: cell-based, rat; conditions: hypoxia 30 min, BBD 1 to 20 μM
Method: as §4, §1
(§6) Cell viability was measured using blue formazan that was metabolized from colorless 3-(4,5-dimethyl-thiazol-2-yl)-2,5-diphenyl tetrazolium bromide (MTT) by mitochondrial dehydrogenases, which are active only in live cells. PC12 or BV2 cells were preincubated in 24-well plates at a density of 5 × 10^5 cells per well for 24 h. […] One hour later, 200 μl of solubilization solution were added to each well and absorption values read at 540 nm on microtiter plate reader (spectraMAX 340, Molecular Devices, Sunnyvale, CA, USA). Data were expressed as the mean percent of viable cells vs. control.

PGE2 = assay: Hypoxia-induced PGE2 release (ELISA), BV-2; format: cell-based, murine; conditions: BV-2 cells, hypoxia 30 min, BBD 10 and 20 μM
Method: as §1, §2

ROS in BV-2 cells = assay: Hypoxia-induced ROS generation (DCF), BV-2; format: cell-based, murine
p38 [6] = assay: Western blot of hypoxia-induced signaling, PC12: p38; format: cell-based, rat; conditions: PC12 cells, 10 min hypoxia (Figure 5C), BBD 20 μM
Method: as §1, §3

MDA in BV-2 cells = assay: Lipid peroxidation (MDA) under hypoxia, BV-2; format: cell-based, murine; conditions: hypoxia 30 min, BBD 1, 10, 20 μM
JNK [7] = assay: Western blot of hypoxia-induced signaling, PC12: JNK; format: cell-based, rat; conditions: PC12 cells, 10 min hypoxia (Figure 5C), BBD 20 μM
Method: as §1, §3

[8] = test system: malondialdehyde (MDA) of brain tissue; assay: Lipid peroxidation (MDA) of ischemic brain tissue; format: in vivo, Sprague–Dawley rats; conditions: SD rat brain, BBD 10 mg/kg i.p. 90 min after MCAO
Method: (§7) Twenty-four male Sprague–Dawley (SD) rats (200~250 gm) were purchased from National Animal Center, Taipei, Taiwan and randomly divided into the control (normal saline), and BBD groups. The experiment was approved by Institutional Animal Care and Use Committee, Taichung Veterans General Hospital (IACUC LA-97490). Rats were injected intraperitoneally (i.p.) with BBD (10 mg/kg) 90 min after MACO experiment. Each SD rat was anesthetized with chlorohydrate (400 mg/kg) i.p. and its body temperature was maintained at 37°C with a heating pad (CMA/150). A midline neck incision was made and the right carotid artery was exposed and separated from the vago-sympathetic trunk. The right carotid artery was loosely encircled with a 4-O suture for later occlusion. The SD rat’s head was placed in a stereotaxic frame (David Kopf, CA, USA) with the nose bar positioned 4.0 mm below the horizontal line. Following a midline incision, the skull was partially removed to expose the right middle cerebral artery. […]
Lipid peroxidation is quantified by measuring malondialdehyde (MDA) of PC12 cells and brain tissue of SD rats by lipid peroxidation (LPO) assay kit (Cayman). […] MDA levels were assayed by measuring the amount expressed in 5 × 10^5 cells of PC12 and SD brain tissue, and the absorbance at 500 nm was determined using a microplate reader (spectraMAX 340).

COX-2 [9] = assay: Western blot of hypoxia-induced signaling, PC12: COX-2; format: cell-based, rat; conditions: PC12 cells, 10 min hypoxia (Figure 5C), BBD 20 μM
Method: as §1, §3

COX-2 [10] = assay: Western blot of hypoxia-induced signaling, BV-2: COX-2; format: cell-based, murine; conditions: BV-2 cells, 10 min hypoxia, BBD 20 μM
Method: as §1, §3

JNK [11] = assay: Western blot of hypoxia-induced signaling, BV-2: JNK; format: cell-based, murine; conditions: BV-2 cells, 10 min hypoxia, BBD 20 μM
Method: as §1, §3

p38 [12] = assay: Western blot of hypoxia-induced signaling, BV-2: p38; format: cell-based, murine; conditions: BV-2 cells, 10 min hypoxia, BBD 20 μM
Method: as §1, §3

focal cerebral ischemia = assay: Focal cerebral ischemia (MCAO), infarct size by TTC staining; format: in vivo, Sprague–Dawley rats; conditions: SD rats, BBD 10 mg/kg i.p. 90 min after MCAO; ischemia group 16.1%
Method: as §7, with “Sprague-Dawley” for “Sprague–Dawley”, “rat's” for “rat’s”, “artery. The middle cerebral artery was loosely encircled with an 8-O suture for later occlusion. A focal cerebral ischemia was induced by occlusion of the right common carotid artery and the right cerebral artery (MCAO) for 60 min, followed by reperfusion.” for “artery.”

[13] = test system: superoxide dismutase (SOD) activity; assay: SOD activity of ischemic brain; format: in vivo, Sprague–Dawley rats; conditions: SD rat brain, BBD 10 mg/kg i.p. 90 min after MCAO
Method: as §7, with “artery. The middle cerebral artery was loosely encircled with an 8-O suture for later occlusion. A focal cerebral ischemia was induced by occlusion of the right common carotid artery and the right cerebral artery (MCAO) for 60 min, followed by reperfusion.” for “artery.”
Superoxide dismutase (SOD) activity was determined by a Superoxide Dismutase assay kit (Cayman, Ann Arbor, MI, USA). […]

IL-6 = assay: Hypoxia-induced IL-6 production (ELISA), BV-2; format: cell-based, murine
Method: as §1, §2

BV-2 cells [14] = assay: MTT cell viability under hypoxia, BV-2; format: cell-based, murine; conditions: hypoxia 30 min, BBD 1, 10, 20 μM
Method: as §4, §1, §6

PC12 cells [15] = assay: LDH release under hypoxia, PC12; format: cell-based, rat; conditions: BBD 1, 10, 20 μM
Method: as §4, §1, §5

neurons = assay: Toxicity of BBD alone to neurons; format: cell-based; conditions: BBD 100 μM alone, data not shown
ROS in PC12 cells = assay: Hypoxia-induced ROS generation (DCF), PC12; format: cell-based, rat; conditions: hypoxia 30 min, BBD 1, 10, 20 μM
Method: as §1
Intracellular accumulation of ROS was determined using H2DCF-DA, which is a nonfluorescent compound that accumulates in cells following deacetylation. H2DCF then reacts with ROS to form fluorescent dichlorofluorescein (DCF). PC12 cells were plated in 96-well plates and grown for 24 h before addition of DMEM plus 10 μM H2DCF-DA, incubated for 60 min at 37°C, and treated with various concentrations of BBD for hypoxia 30 min. Cells were then washed twice at room temperature with Hank’s balanced salt solution (HBSS without phenol red). Cellular fluorescence was monitored on a Fluoroskan Ascent fluorometer (Labsystems Oy, Helsinki, Finland) using an excitation wavelength of 485 nm and emission wavelength of 538 nm.

MDA in PC12 cells = assay: Lipid peroxidation (MDA) under hypoxia, PC12; format: cell-based, rat; conditions: hypoxia 30 min, BBD 1, 10, 20 μM
Excerpt: as §1
Lipid peroxidation is quantified by measuring malondialdehyde (MDA) of PC12 cells and brain tissue of SD rats by lipid peroxidation (LPO) assay kit (Cayman). This kit works on the principle of condensation of one molecule of either MDA or 4-hydroxyalkenals with two molecules of N-methyl-2-phenylindole to yield a stable chromophore. MDA levels were assayed by measuring the amount expressed in 5 × 10^5 cells of PC12 and SD brain tissue, and the absorbance at 500 nm was determined using a microplate reader (spectraMAX 340).

Caspase-3 = assay: Western blot of hypoxia-induced signaling, BV-2: Caspase-3; format: cell-based, murine; conditions: BV-2 cells, 10 min hypoxia, BBD 20 μM
Method: as §1, §3

[16] = PAMPA-BBB, known value; no reference given; cited from earlier work
[17] = BV-2 cells, hypoxia 30 min, BBD 1, 10, 20 μM
[18] = hypoxia, concentration not given

SMILES: COc1cccc(CC(CO)C(CO)Cc2cccc(OC)c2)c1 (stereo not shown) [BBD, 3-bis (3-methoxybenzyl) butane-1,4-diol]
- hypoxia-induced IL-1 production (IL-1; [17]): dose-dependently decreased
- inhibition of hypoxia-induced IL-1 production (IL-1; [18]): 40-50%
- reduced expression of AKT-1 (AKT-1): 45 ± 6%
- Classification ([1]; PAMPA-BBB predicted BBB permeation class): BBB+ (BBB + compound (high BBB permeation predicted): Pe (10^-6 cm s^-1) > 4.0)
- Papp at 100 μg/ml ([1]; pig, PAMPA, pH 7.4): 20.9 ± 3.05 ×10⁻⁶ cm/s
- suppressed hypoxia induced expression of ERK (ERK [2]): 9 ± 7%
- reduced expression of ERK (ERK [3]): 10 ± 7%
- hypoxia-induced LDH release (BV-2 cells [4]): reduced
- cell viability (MTT) under hypoxia (PC12 cells [5]): preserved
- hypoxia-induced PGE2 release (PGE2): decreased PGE2 release from BV-2 cells significantly
- hypoxia-induced ROS accumulation (DCF signal) (ROS in BV-2 cells; [17]): decreasing the ROS accumulation
- inhibition of hypoxia-induced ROS production (ROS in BV-2 cells; hypoxia, cell line and concentration not stated): 40-50%
- suppressed hypoxia induced expression of p38 (p38 [6]): -10 ± 9%
- hypoxia-induced increase in MDA level (MDA in BV-2 cells): suppressed
- suppressed hypoxia induced expression of JNK (JNK [7]): 86 ± 5%
- decrease of MDA level as compared to the ischemia group [8]: 6%
- MDA level ([8]; ischemia group 83 μM): 78 µM
- suppressed hypoxia induced expression of COX-2 (COX-2 [9]): 75 ± 11%
- reduced expression of COX-2 (COX-2 [10]): 13 ± 7%
- reduced expression of JNK (JNK [11]): 88 ± 6%
- reduced expression of p38 (p38 [12]): -8 ± 10%
- infarct size (focal cerebral ischemia): 4.9%
- increase of SOD activity as compared to the ischemia group [13]: 24%
- SOD activity ([13]; ischemia group 68 μ/mL): 84 μ/mL
- hypoxia-induced IL-6 production (IL-6; [17]): dose-dependently decreased
- inhibition of hypoxia-induced IL-6 production (IL-6; [18]): 40-50%
- cell viability (MTT) under hypoxia (BV-2 cells [14]): increased
- hypoxia-induced LDH release (PC12 cells [15]): decreased
- toxicity to neurons (neurons): not toxic
- hypoxia-induced ROS accumulation (DCF signal) (ROS in PC12 cells): decreasing the ROS accumulation
- hypoxia-induced increase in MDA level (MDA in PC12 cells): suppressed
- reduced expression of Caspase-3 (Caspase-3): 50 ± 7%

SMILES: c1cc2c(cc1[C@H]1OC[C@H]3[C@@H]1CO[C@@H]3c1ccc3c(c1)OCO3)OCO2 [Sesamin, sesamin]
- Pe ([1]; pig, PAMPA, 100 μg/ml, pH 7.4): 0.00 ± 0.01 10^ -6 cm/s

SMILES: Cn1c(=O)c2[nH]cnc2n(C)c1=O [Theophylline, theophylline]
- Known Pe [16]: 0.12 ~ 0.18 10^ -6 cm/s
